# Measured values: patent EP0414903A1, “NEW THIOPROLINE DERIVATIVE” (priority 1988, dated 1990)
# Non-standard residues stand in square brackets, D forms with d. Residues, ends and D or L forms follow the SMILES beside them. *: point of attachment. Thz = O=C(O)[C@@H]1CSCN1; Cbz = O=C(OCc1ccccc1)*
# What was measured:
# [1] = tested on: scopolamine-induced amnesia; assay: Step-down passive avoidance test (anti-amnestic activity, scopolamine-induced amnesia); assay type: in vivo, rats; conditions: scopolamine 0.5 mg/kg i.p., relative to scopolamine-treated group, retention trial 24 hours after acquisition
# Excerpt: A step-down passive avoidance test on rats was used as the method of assay for anti-amnestic activity to estimate the preventive effect of prolylendopeptidase inhibitors on scopolamine-induced amnesia. This method of assay involved application of electric shocks to animals upon their stepping down on a grid floor to see whether they have learned that such shocks can be avoided by staying on a platform. A passive avoidance test chamber used in this experiment was comprised of an electrifiable grid floor (20 cm in length and 22 cm in width) and a platform (20 cm in length, 15 cm in width and 5 cm in height) placed at the right back corner thereof.
# 5-Weeks-old male rats of Wister strain weighing 100-150 g (purchased from Japan Clea Laboratory) were used in the test.
# Each test compound used in the doses indicated in Tables 1 - 4 was dissolved or suspended in 4% gum arabic-containing distilled water (1.0 ml) and administered p.o. one hour before the commencement of acquisition trial. In addition, scopolamine hydrobromide dissolved in saline (0.5 ml) was intraperitoneally administered in a dose of 0.5 mg/kg 30 minutes before the acquisition trial to prepare experimental animal models of amnesia.
# In the acquisition trial, the rat was placed on the platform in the test chamber and, when the animal stepped down on the grid floor, the electric current of 5.0 mA was immediately sent to the grid floor continuously until the animal went up on the platform. If the rat having gone up on the platform stayed there for more than 30 seconds, the animal was regarded to have learned the situation and taken out of the test chamber. A total time of measurement in the acquisition trial was limited to 300 seconds as maximum, and the time elapsing until the rat learned the situation was measured. In order to avoid any significant difference in the rats, those which took more than 300 seconds for the learning were excluded from the experiment.
# The retention trial was carried out 24 hours after the acquisition trial. In this trial, the rat was placed again on the platform in the test chamber, the time elapsing until the animal stepped down onto the grid floor (the step-down latency) was measured.
# In each of these tables they are indicated as relative step-down latency, shown by each test compound-treated group in the retention trial, to step-down latency for scopolamine-treated group (i.e. test compound-treated group's step-down latency/scopolamine-treated group's step-down latency).
# bovine brain PEP = target: T1, bovine brain PEP (Bos taurus, UniProt Q9XTA2); assay: Inhibitory activity against proline endopeptidase (PEP), substrate Z-Gly-Pro-β-NA; assay type: biochemical; conditions: pH 7.0, 37°C
# T1 construct: from tissue; host or cells: bovine brain
# T1 sequence (Q9XTA2 1-710): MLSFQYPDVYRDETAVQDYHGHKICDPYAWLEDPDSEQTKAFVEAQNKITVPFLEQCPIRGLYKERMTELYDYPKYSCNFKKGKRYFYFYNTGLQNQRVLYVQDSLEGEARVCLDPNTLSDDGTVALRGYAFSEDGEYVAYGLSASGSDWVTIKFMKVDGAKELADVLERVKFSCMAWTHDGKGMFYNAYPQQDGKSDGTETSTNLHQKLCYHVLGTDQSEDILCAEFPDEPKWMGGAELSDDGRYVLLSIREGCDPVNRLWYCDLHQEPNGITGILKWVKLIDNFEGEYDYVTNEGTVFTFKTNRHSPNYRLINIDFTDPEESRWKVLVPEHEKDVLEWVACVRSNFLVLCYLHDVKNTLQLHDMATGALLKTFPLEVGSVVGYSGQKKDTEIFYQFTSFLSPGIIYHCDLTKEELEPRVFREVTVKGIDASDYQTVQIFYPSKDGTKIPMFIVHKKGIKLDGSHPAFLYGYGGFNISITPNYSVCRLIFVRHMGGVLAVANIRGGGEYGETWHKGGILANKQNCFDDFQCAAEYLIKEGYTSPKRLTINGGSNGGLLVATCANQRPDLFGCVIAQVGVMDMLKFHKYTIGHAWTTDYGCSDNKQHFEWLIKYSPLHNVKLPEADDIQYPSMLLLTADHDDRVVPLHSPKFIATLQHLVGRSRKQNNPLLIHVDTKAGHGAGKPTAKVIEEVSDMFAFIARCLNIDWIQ
# Protocol: The thioproline derivatives of the general formula (I) shown above as test compound were assayed for inhibitory activity against bovine brain PEP by the following test procedure using as substrate N-benzyloxycarbonyl-glycyl-proline-β-naphthylamide (Z-Gly-Pro-β-NA).
# 100 µl of PEP (about 0.14 U/ml) and 100µl of one of test compound solutions adjusted to different concentrations (0, 10⁻⁹ - 10⁻⁴M) were added to 0.7 ml of 20 mM Tris-HCl buffer (pH = 7.0) containing 10 mM EDTA and 10 mM 2-mercaptoethanol, and the mixture was preincubated at 37°C for 5 minutes. […] The reaction was […] using 25% trichloroacetic acid, and the reaction mixture was centrifuged at 3,000 r.p.m. for 10 minutes. To 0.5 ml of the supernatent was added 0.5 ml of 0.1% nitrous acid, and after 3 minutes 0.05% solution of N-(l-naphthyl)etnylenediamine dihydrochloride in ethanol was added thereto. The mixture was allowed to stand at 37°C for 25 minutes and then the absorbance at 570 nm was measured.
# Enzyme Activity Unit = ΔOD x 0.42 x Dilution ratio (µmol/min/ml)
smiles,measurement,setting,value
"O=C[C@@H]1CSCN1C(=O)[C@@H]1CSCN1C(=O)OCc1ccccc1 [ZTT, Benzyloxycarbonyl-L-thioprolyl-L-thioprolinal, reference compound] (Cbz-[Thz]-[Thz]-aldehyde)",Relative step-down latency in retention trial (mean±S.E.),"[1]; Table 2, dose 0.008 mg/kg p.o.",1.0±0.3
same,Relative step-down latency in retention trial (mean±S.E.),"[1]; Table 2, dose 0.04 mg/kg p.o.",3.0±1.2
same,Relative step-down latency in retention trial (mean±S.E.),"[1]; Table 2, dose 0.2 mg/kg p.o.",2.6±0.9
same,Relative step-down latency in retention trial (mean±S.E.),"[1]; Table 2, dose 1 mg/kg p.o.",1.6±0.8
same,Relative step-down latency in retention trial (mean±S.E.),"[1]; Table 2, dose 5 mg/kg p.o.",1.0±0.2
same,Relative step-down latency in retention trial (mean±S.E.),"[1]; Table 2, dose 25 mg/kg p.o.",1.4±0.9
"CCOC(OCC)[C@@H]1CSCN1C(=O)[C@@H]1CSCN1C(=O)OCc1ccccc1 [Example 2, Benzyloxycarbonyl-L-thioprolyl-L-thioprolinal diethyl acetal]",IC50,bovine brain PEP,250 µM
same,Relative step-down latency in retention trial (mean±S.E.),"[1]; Table 2, dose 0.008 mg/kg p.o.",1.5±0.6
same,Relative step-down latency in retention trial (mean±S.E.),"[1]; Table 2, dose 0.04 mg/kg p.o.",2.7±1.4
same,Relative step-down latency in retention trial (mean±S.E.),"[1]; Table 2, dose 0.2 mg/kg p.o.",1.7±0.9
same,Relative step-down latency in retention trial (mean±S.E.),"[1]; Table 2, dose 1 mg/kg p.o.",2.3±1.2
same,Relative step-down latency in retention trial (mean±S.E.),"[1]; Table 2, dose 5 mg/kg p.o.",1.5±0.6
same,Relative step-down latency in retention trial (mean±S.E.),"[1]; Table 2, dose 25 mg/kg p.o.",1.3±0.7
"COc1ccc(C(=O)N2CCCC2=O)cc1 [aniracetam, reference compound]",Relative step-down latency in retention trial (mean±S.E.),"[1]; Table 3, dose 12.5 mg/kg p.o.",1.1±0.4
same,Relative step-down latency in retention trial (mean±S.E.),"[1]; Table 3, dose 25 mg/kg p.o.",1.6±0.6
same,Relative step-down latency in retention trial (mean±S.E.),"[1]; Table 3, dose 50 mg/kg p.o.",2.3±0.6
same,Relative step-down latency in retention trial (mean±S.E.),"[1]; Table 3, dose 100 mg/kg p.o.",0.7±0.3
"COC(OC)[C@@H]1CSCN1C(=O)[C@@H]1CSCN1C(=O)OCc1ccccc1 [Example 1, Benzyloxycarbonyl-L-thioprolyl-L-thioprolinal dimethyl acetal]",IC50,bovine brain PEP,10 µM
same,Relative step-down latency in retention trial (mean±S.E.),"[1]; Table 2, dose 0.008 mg/kg p.o.",0.9±0.1
same,Relative step-down latency in retention trial (mean±S.E.),"[1]; Table 2, dose 0.04 mg/kg p.o.",2.4±1.1
same,Relative step-down latency in retention trial (mean±S.E.),"[1]; Table 2, dose 0.2 mg/kg p.o.",2.5±1.5
same,Relative step-down latency in retention trial (mean±S.E.),"[1]; Table 2, dose 1 mg/kg p.o.",1.4±0.3
same,Relative step-down latency in retention trial (mean±S.E.),"[1]; Table 2, dose 5 mg/kg p.o.",1.1±0.4
same,Relative step-down latency in retention trial (mean±S.E.),"[1]; Table 2, dose 25 mg/kg p.o.",1.6±0.6
